Values of other authors in PubChem BioAssay AID1259409 (Chemical Carcinogenesis Research Information System (CCRIS), 2018).

Test system: rodent chemically induced tumor inhibition, incidence and multiplicity
Experiment: CCRIS tumor inhibitor studies
Conditions: Dose [Inhibitor]: 0, Route [Inhibitor]: ORAL, Species: RAT, Promoter: NONE USED

**Q.** Which “tumour outcome (control, treated, inhibition, significance)” value (Carcinogen: 7,12-DIMETHYLBENZ[A]ANTHRACENE, 57-97-6, 5 PPM (AS SELENIUM) IN DIET BEGINNING 2 WK PRIOR TO CARCINOGEN DOSE AND CONTINUING FOR 1 WK POST CARCINOGEN DOSE (STU, Strain/Sex: SPRAGUE-DAWLEY/FEMALE, Target Tissue: Type of Lesion: MAMMARY GLAND: ADENOCARCINOMA, Dose [Carcinogen]: 10 MG ONCE AT 55 D OF AGE) does the source give for `N#C[Se]Cc1ccc(C[Se]C#N)cc1` here?
**A.** 22/25 (88%), 15/25 (60%), 32%, p<0.05

**Q.** What about the “tumour outcome (control, treated, inhibition, significance)” value (Carcinogen: 7,12-DIMETHYLBENZ[A]ANTHRACENE, 57-97-6, 5 PPM (AS SELENIUM) IN DIET BEGINNING 2 WK PRIOR TO CARCINOGEN DOSE AND CONTINUING FOR DURATION OF STUDY (STUDY DURAT, Strain/Sex: SPRAGUE-DAWLEY/FEMALE, Target Tissue: Type of Lesion: MAMMARY GLAND: ADENOCARCINOMA, Dose [Carcinogen]: 10 MG ONCE AT 55 D OF AGE) of the same compound?
**A.** 88%, 52%, 41%, p<0.05

**Q.** And the “tumour outcome (control, treated, inhibition, significance)” value (Carcinogen: 7,12-DIMETHYLBENZ[A]ANTHRACENE, 57-97-6, 10 PPM (AS SELENIUM) IN DIET BEGINNING 1 WK POST CARCINOGEN DOSE AND CONTINUING FOR 25 WK (STUDY DURATION: 25 WK), Strain/Sex: SPRAGUE-DAWLEY/FEMALE, Target Tissue: Type of Lesion: MAMMARY GLAND: ADENOCARCINOMA, Dose [Carcinogen]: 10 MG ONCE AT 55 D OF AGE)?
**A.** 22/25 (88%), 14/25 (56%), 36%, p<0.05

**Q.** What about the “tumour outcome (control, treated, inhibition, significance)” value (Carcinogen: 7,12-DIMETHYLBENZ[A]ANTHRACENE, 57-97-6, 10 PPM (AS SELENIUM) IN DIET BEGINNING 2 WK PRIOR TO CARCINOGEN DOSE AND CONTINUING FOR 1 WK POST CARCINOGEN DOSE (ST, Strain/Sex: SPRAGUE-DAWLEY/FEMALE, Target Tissue: Type of Lesion: MAMMARY GLAND: ADENOCARCINOMA, Dose [Carcinogen]: 10 MG ONCE AT 55 D OF AGE) of the same compound?
**A.** 22/25 (88%), 12/25 (48%), 45%, p<0.05

**Q.** And the “tumour outcome (control, treated, inhibition, significance)” value (Carcinogen: 7,12-DIMETHYLBENZ[A]ANTHRACENE, 57-97-6, 10 PPM (AS SELENIUM) IN DIET BEGINNING 2 WK PRIOR TO CARCINOGEN DOSE AND CONTINUING FOR DURATION OF STUDY (STUDY DURA, Strain/Sex: SPRAGUE-DAWLEY/FEMALE, Target Tissue: Type of Lesion: MAMMARY GLAND: ADENOCARCINOMA, Dose [Carcinogen]: 10 MG ONCE AT 55 D OF AGE)?
**A.** 88%, 40%, 55%, p<0.05

**Q.** What about the “tumour outcome (control, treated, inhibition, significance)” value (Carcinogen: 7,12-DIMETHYLBENZ[A]ANTHRACENE, 57-97-6, 15 PPM (AS SELENIUM) IN DIET BEGINNING 1 WK POST CARCINOGEN DOSE AND CONTINUING FOR 25 WK (STUDY DURATION: 25 WK), Strain/Sex: SPRAGUE-DAWLEY/FEMALE, Target Tissue: Type of Lesion: MAMMARY GLAND: ADENOCARCINOMA, Dose [Carcinogen]: 10 MG ONCE AT 55 D OF AGE) of the same compound?
**A.** 22/25 (88%), 12/25 (48%), 45%, p<0.05

**Q.** What about the “tumour outcome (control, treated, inhibition, significance)” value (Carcinogen: 7,12-DIMETHYLBENZ[A]ANTHRACENE, 57-97-6, 15 PPM (AS SELENIUM) IN DIET BEGINNING 2 WK PRIOR TO CARCINOGEN DOSE AND CONTINUING FOR 1 WK POST CARCINOGEN DOSE (ST, Strain/Sex: SPRAGUE-DAWLEY/FEMALE, Target Tissue: Type of Lesion: MAMMARY GLAND: ADENOCARCINOMA, Dose [Carcinogen]: 10 MG ONCE AT 55 D OF AGE) of the same compound?
**A.** 22/25 (88%), 6/25 (24%), 73%, p<0.05

**Q.** And the “tumour outcome (control, treated, inhibition, significance)” value (Carcinogen: 7,12-DIMETHYLBENZ[A]ANTHRACENE, 57-97-6, 80 PPM IN HIGH FAT DIET FOR 2 WK BEGINNING 1 WK PRIOR TO CARCINOGEN DOSE (STUDY DURATION: 17 WK), Strain/Sex: SPRAGUE-DAWLEY/FEMALE, Target Tissue: Type of Lesion: MAMMARY GLAND: TUMOR, Dose [Carcinogen]: 5 MG IN 0.2 ML OLIVE OIL ONCE)?
**A.** 22/25 (88%), 5/25 (20%), 77%, p<0.01

**Q.** What about the “tumour outcome (control, treated, inhibition, significance)” value (Carcinogen: AZOXYMETHANE, 25843-45-2, 20 PPM IN HIGH-FAT DIET BEGINNING 2 WK PRIOR TO CARCINOGEN TREATMENT AND CONTINUING FOR 3 D POST CARCINOGEN TREATMENT, Strain/Sex: F344/MALE, Target Tissue: Type of Lesion: COLON: ADENOCARCINOMA, Dose [Carcinogen]: 15 MG/KG BW/WK FOR 2 WK) of the same compound?
**A.** 80%, 63%, 21%, not significant

**Q.** What about the “tumour outcome (control, treated, inhibition, significance)” value (Carcinogen: AZOXYMETHANE, 25843-45-2, 40 PPM IN HIGH-FAT DIET BEGINNING 2 WK PRIOR TO CARCINOGEN TREATMENT AND CONTINUING FOR 3 D POST CARCINOGEN TREATMENT, Strain/Sex: F344/MALE, Target Tissue: Type of Lesion: COLON: ADENOCARCINOMA, Dose [Carcinogen]: 15 MG/KG BW/WK FOR 2 WK) of the same compound?
**A.** 80%, 50%, 38%, p<0.05

**Q.** What about the “tumour outcome (control, treated, inhibition, significance)” value (Carcinogen: AZOXYMETHANE, 25843-45-2, 40 PPM IN HIGH-FAT DIET FOR DURATION OF STUDY BEGINNING 3 D POST CARCINOGEN TREATMENT (STUDY DURATION: 36 WK), Strain/Sex: F344/MALE, Target Tissue: Type of Lesion: COLON: ADENOCARCINOMA, Dose [Carcinogen]: 15 MG/KG BW/WK FOR 2 WK) of the same compound?
**A.** 80%, 37%, 54%, p<0.05
